Test results taken from patent publication US4678781A, “3-substituted-aminomethyl cephalosporin derivatives” (ICI Pharma, priority 1983, dated 1987).
Converted amounts (≈) assume the structure as drawn.

System: E. coli
Test: MIC, agar-dilution technique, standard in vitro test
Assay type: cell-based
Details: Escherichia coli; strain code A8341098; Isosensitest agar; inoculum 10^4 CFU./spot; read-out: minimum inhibitory concentration (MIC)
Description: (§1) The results set out in the following Table are illustrative of the biological activity of the compounds of the present invention. The listed compounds all carry a 1-methyl-4-pyridinioaminomethyl radical at the 3-position of the cephalosporin nucleus and a variety of known substituents at the 7-position. The following results are those obtained on a standard in vitro test system and using Isosensitest agar medium. The antibacterial activity is described in terms of the minimum inhibitory concentration (MIC) determined by agar-dilution technique with an inoculum size of 10^4 CFU./spot.

| SMILES | MIC [µg/mL] |
| --- | --- |
| CCN1CCN(C(=O)N[C@@H](C(=O)N[C@@H]2C(=O)N3C(C(=O)[O-])=C(CNc4cc[n+](C)cc4)CS[C@H]23)c2ccc(O)cc2)C(=O)C1=O [Example 81] | 2 (≈ 3.14 µM) |
| C[n+]1ccc(NCC2=C(C(=O)[O-])N3C(=O)[C@@H](NC(=O)[C@H](NC(=O)c4n[nH]c(=O)nc4O)c4ccc(O)cc4)[C@H]3SC2)cc1 [Example 82] | 128 (≈ 210 µM) |
| C[n+]1ccc(NCC2=C(C(=O)[O-])N3C(=O)[C@@H](NC(=O)/C(=N\OCC#N)c4csc(N)n4)[C@H]3SC2)cc1 [Example 96] | 0.032 (≈ 0.0605 µM) |
| C[n+]1ccc(NCC2=C(C(=O)[O-])N3C(=O)[C@@H](NC(=O)/C(=N\OC(C)(C)C(=O)O)c4csc(N)n4)[C@H]3SC2)cc1 [Example 23] | 0.13 (≈ 0.226 µM) |

System: Ent. cloacae
Test: as above
Assay type: cell-based
Details: Enterobacter cloacae; strain code A8401054; Isosensitest agar; inoculum 10^4 CFU./spot; read-out: minimum inhibitory concentration (MIC)
Description: as §1

| SMILES | MIC [µg/mL] |
| --- | --- |
| CCN1CCN(C(=O)N[C@@H](C(=O)N[C@@H]2C(=O)N3C(C(=O)[O-])=C(CNc4cc[n+](C)cc4)CS[C@H]23)c2ccc(O)cc2)C(=O)C1=O [Example 81] | 4 (≈ 6.27 µM) |
| C[n+]1ccc(NCC2=C(C(=O)[O-])N3C(=O)[C@@H](NC(=O)[C@H](NC(=O)c4n[nH]c(=O)nc4O)c4ccc(O)cc4)[C@H]3SC2)cc1 [Example 82] | > 128 |
| C[n+]1ccc(NCC2=C(C(=O)[O-])N3C(=O)[C@@H](NC(=O)/C(=N\OCC#N)c4csc(N)n4)[C@H]3SC2)cc1 [Example 96] | 0.25 (≈ 0.473 µM) |
| C[n+]1ccc(NCC2=C(C(=O)[O-])N3C(=O)[C@@H](NC(=O)/C(=N\OC(C)(C)C(=O)O)c4csc(N)n4)[C@H]3SC2)cc1 [Example 23] | 0.5 (≈ 0.869 µM) |

System: Kleb. aerogenes
Test: as above
Assay type: cell-based
Details: Klebsiella aerogenes; strain code A8391027; Isosensitest agar; inoculum 10^4 CFU./spot; read-out: minimum inhibitory concentration (MIC)
Description: as §1

| SMILES | MIC [µg/mL] |
| --- | --- |
| CCN1CCN(C(=O)N[C@@H](C(=O)N[C@@H]2C(=O)N3C(C(=O)[O-])=C(CNc4cc[n+](C)cc4)CS[C@H]23)c2ccc(O)cc2)C(=O)C1=O [Example 81] | 2 (≈ 3.14 µM) |
| C[n+]1ccc(NCC2=C(C(=O)[O-])N3C(=O)[C@@H](NC(=O)[C@H](NC(=O)c4n[nH]c(=O)nc4O)c4ccc(O)cc4)[C@H]3SC2)cc1 [Example 82] | 64 (≈ 105 µM) |
| C[n+]1ccc(NCC2=C(C(=O)[O-])N3C(=O)[C@@H](NC(=O)/C(=N\OCC#N)c4csc(N)n4)[C@H]3SC2)cc1 [Example 96] | < 0.016 |
| C[n+]1ccc(NCC2=C(C(=O)[O-])N3C(=O)[C@@H](NC(=O)/C(=N\OC(C)(C)C(=O)O)c4csc(N)n4)[C@H]3SC2)cc1 [Example 23] | 0.13 (≈ 0.226 µM) |

System: P. aeruginosa
Test: as above
Assay type: cell-based
Details: Pseudomonas aeruginosa; strain code A8101028; Isosensitest agar; inoculum 10^4 CFU./spot; read-out: minimum inhibitory concentration (MIC)
Description: as §1

| SMILES | MIC [µg/mL] |
| --- | --- |
| CCN1CCN(C(=O)N[C@@H](C(=O)N[C@@H]2C(=O)N3C(C(=O)[O-])=C(CNc4cc[n+](C)cc4)CS[C@H]23)c2ccc(O)cc2)C(=O)C1=O [Example 81] | > 128 |
| C[n+]1ccc(NCC2=C(C(=O)[O-])N3C(=O)[C@@H](NC(=O)[C@H](NC(=O)c4n[nH]c(=O)nc4O)c4ccc(O)cc4)[C@H]3SC2)cc1 [Example 82] | > 12 |
| C[n+]1ccc(NCC2=C(C(=O)[O-])N3C(=O)[C@@H](NC(=O)/C(=N\OCC#N)c4csc(N)n4)[C@H]3SC2)cc1 [Example 96] | 32 (≈ 60.5 µM) |
| C[n+]1ccc(NCC2=C(C(=O)[O-])N3C(=O)[C@@H](NC(=O)/C(=N\OC(C)(C)C(=O)O)c4csc(N)n4)[C@H]3SC2)cc1 [Example 23] | 2 (≈ 3.47 µM) |

System: Prot. mirabilis
Test: as above
Assay type: cell-based
Details: Proteus mirabilis; strain code A8432057; Isosensitest agar; inoculum 10^4 CFU./spot; read-out: minimum inhibitory concentration (MIC)
Description: as §1

| SMILES | MIC [µg/mL] |
| --- | --- |
| CCN1CCN(C(=O)N[C@@H](C(=O)N[C@@H]2C(=O)N3C(C(=O)[O-])=C(CNc4cc[n+](C)cc4)CS[C@H]23)c2ccc(O)cc2)C(=O)C1=O [Example 81] | 32 (≈ 50.2 µM) |
| C[n+]1ccc(NCC2=C(C(=O)[O-])N3C(=O)[C@@H](NC(=O)[C@H](NC(=O)c4n[nH]c(=O)nc4O)c4ccc(O)cc4)[C@H]3SC2)cc1 [Example 82] | 32 (≈ 52.6 µM) |
| C[n+]1ccc(NCC2=C(C(=O)[O-])N3C(=O)[C@@H](NC(=O)/C(=N\OCC#N)c4csc(N)n4)[C@H]3SC2)cc1 [Example 96] | 0.064 (≈ 0.121 µM) |
| C[n+]1ccc(NCC2=C(C(=O)[O-])N3C(=O)[C@@H](NC(=O)/C(=N\OC(C)(C)C(=O)O)c4csc(N)n4)[C@H]3SC2)cc1 [Example 23] | 0.064 (≈ 0.111 µM) |

System: Sal. dublin
Test: as above
Assay type: cell-based
Details: Salmonella enterica; strain code A8369001; Isosensitest agar; inoculum 10^4 CFU./spot; read-out: minimum inhibitory concentration (MIC)
Description: as §1

| SMILES | MIC [µg/mL] |
| --- | --- |
| CCN1CCN(C(=O)N[C@@H](C(=O)N[C@@H]2C(=O)N3C(C(=O)[O-])=C(CNc4cc[n+](C)cc4)CS[C@H]23)c2ccc(O)cc2)C(=O)C1=O [Example 81] | 8 (≈ 12.5 µM) |
| C[n+]1ccc(NCC2=C(C(=O)[O-])N3C(=O)[C@@H](NC(=O)[C@H](NC(=O)c4n[nH]c(=O)nc4O)c4ccc(O)cc4)[C@H]3SC2)cc1 [Example 82] | 64 (≈ 105 µM) |
| C[n+]1ccc(NCC2=C(C(=O)[O-])N3C(=O)[C@@H](NC(=O)/C(=N\OCC#N)c4csc(N)n4)[C@H]3SC2)cc1 [Example 96] | 0.064 (≈ 0.121 µM) |
| C[n+]1ccc(NCC2=C(C(=O)[O-])N3C(=O)[C@@H](NC(=O)/C(=N\OC(C)(C)C(=O)O)c4csc(N)n4)[C@H]3SC2)cc1 [Example 23] | 0.25 (≈ 0.434 µM) |

System: Serr. marcescens
Test: as above
Assay type: cell-based
Details: Serratia marcescens; strain code A8421020; Isosensitest agar; inoculum 10^4 CFU./spot; read-out: minimum inhibitory concentration (MIC)
Description: as §1

| SMILES | MIC [µg/mL] |
| --- | --- |
| CCN1CCN(C(=O)N[C@@H](C(=O)N[C@@H]2C(=O)N3C(C(=O)[O-])=C(CNc4cc[n+](C)cc4)CS[C@H]23)c2ccc(O)cc2)C(=O)C1=O [Example 81] | 8 (≈ 12.5 µM) |
| C[n+]1ccc(NCC2=C(C(=O)[O-])N3C(=O)[C@@H](NC(=O)[C@H](NC(=O)c4n[nH]c(=O)nc4O)c4ccc(O)cc4)[C@H]3SC2)cc1 [Example 82] | > 128 |
| C[n+]1ccc(NCC2=C(C(=O)[O-])N3C(=O)[C@@H](NC(=O)/C(=N\OCC#N)c4csc(N)n4)[C@H]3SC2)cc1 [Example 96] | 0.032 (≈ 0.0605 µM) |
| C[n+]1ccc(NCC2=C(C(=O)[O-])N3C(=O)[C@@H](NC(=O)/C(=N\OC(C)(C)C(=O)O)c4csc(N)n4)[C@H]3SC2)cc1 [Example 23] | 0.25 (≈ 0.434 µM) |

System: Staph. aureus
Test: as above
Assay type: cell-based
Details: Staphylococcus aureus; strain code A8601052; Isosensitest agar; inoculum 10^4 CFU./spot; read-out: minimum inhibitory concentration (MIC)
Description: as §1

| SMILES | MIC [µg/mL] |
| --- | --- |
| CCN1CCN(C(=O)N[C@@H](C(=O)N[C@@H]2C(=O)N3C(C(=O)[O-])=C(CNc4cc[n+](C)cc4)CS[C@H]23)c2ccc(O)cc2)C(=O)C1=O [Example 81] | 1 (≈ 1.57 µM) |
| C[n+]1ccc(NCC2=C(C(=O)[O-])N3C(=O)[C@@H](NC(=O)[C@H](NC(=O)c4n[nH]c(=O)nc4O)c4ccc(O)cc4)[C@H]3SC2)cc1 [Example 82] | 2 (≈ 3.29 µM) |
| C[n+]1ccc(NCC2=C(C(=O)[O-])N3C(=O)[C@@H](NC(=O)/C(=N\OCC#N)c4csc(N)n4)[C@H]3SC2)cc1 [Example 96] | 0.5 (≈ 0.946 µM) |
| C[n+]1ccc(NCC2=C(C(=O)[O-])N3C(=O)[C@@H](NC(=O)/C(=N\OC(C)(C)C(=O)O)c4csc(N)n4)[C@H]3SC2)cc1 [Example 23] | 8 (≈ 13.9 µM) |

System: Strep. pyogenes
Test: as above
Assay type: cell-based
Details: Streptococcus pyogenes; strain code A8681018; Isosensitest agar; inoculum 10^4 CFU./spot; read-out: minimum inhibitory concentration (MIC)
Description: as §1

| SMILES | MIC [µg/mL] |
| --- | --- |
| CCN1CCN(C(=O)N[C@@H](C(=O)N[C@@H]2C(=O)N3C(C(=O)[O-])=C(CNc4cc[n+](C)cc4)CS[C@H]23)c2ccc(O)cc2)C(=O)C1=O [Example 81] | 0.13 (≈ 0.204 µM) |
| C[n+]1ccc(NCC2=C(C(=O)[O-])N3C(=O)[C@@H](NC(=O)[C@H](NC(=O)c4n[nH]c(=O)nc4O)c4ccc(O)cc4)[C@H]3SC2)cc1 [Example 82] | 0.5 (≈ 0.822 µM) |
| C[n+]1ccc(NCC2=C(C(=O)[O-])N3C(=O)[C@@H](NC(=O)/C(=N\OC(C)(C)C(=O)O)c4csc(N)n4)[C@H]3SC2)cc1 [Example 23] | 0.13 (≈ 0.226 µM) |

System: not listed separately
Test: Toxicity observation in mice after subcutaneous administration
Assay type: in vivo
Details: two single doses over one day, each at least five times the PD50 against Salmonella dublin
Protocol: A number of compounds were administered to mice at doses in excess of those required to afford protection against bacterial infections. Thus for example the compounds of Examples 23, 70 and 74 were administered subcutaneously to mice in two single doses over one day, each dose being at least five times the minimum effective dose which protected 50% of the mice against infection with Salmonella dublin (PD50).

| SMILES | overt toxic symptoms or side effects |
| --- | --- |
| C[n+]1ccc(NCC2=C(C(=O)[O-])N3C(=O)[C@@H](NC(=O)/C(=N\OC(C)(C)C(=O)O)c4csc(N)n4)[C@H]3SC2)cc1 [Example 23] | No overt toxic symptoms or side effects attributable to the administered compounds were noted |
